Measurements reported in patent US20230083012A1, “DIHYDROPYRIMIDINE DERIVATIVES AND USES THEREOF IN THE TREATMENT OF HBV INFECTION OR OF HBV-INDUCED DISEASES” (priority 2019, published 2023).

How the values were obtained:
[1] = test system: HBV; test: Anti-HBV activity in HepG2.2.15 cells (HBV DNA in culture medium by qPCR); format: cell-based; conditions: Hepatitis B virus, HepG2.2.15, 144 h, HepG2.2.15 cells, 6 days treatment, HBV DNA in culture medium quantified by real-time PCR; read-out: EC50
Method: Example 2: Anti-Viral Assay in HepG2.2.15 Cells
(§1) HepG2.2.15 (the HepG2.2.15 cell line can be produced by transfection of the HepG2 cell line as described in Sells, Chen, and Acs 1987 (Proc. Natl. Acad. Sci. USA 84: 1005-1009), and the HepG2 cell line is available from ATCC® under number HIB-8065™)
(§2) HepG2.2.15 cells were plated into 96-well plate in 2% FBS culture medium at the density of 40,000 cells/well and 5,000 cells/well for HBV inhibitory activity and cytotoxicity determination, respectively. After incubation at 37° C., 5% CO2 overnight, cells were treated with medium containing compounds for 6 days with medium and compounds refreshed after 3 days of treatment. Each compound was tested in a 1:3 serial dilutions at 8 different concentrations in triplicate. The highest concentration of the compounds was 10 uM or 1 uM for anti-HBV activity assay and 100 uM for cytotoxicity determination.
The change of HBV DNA level induced by the compounds was assessed by quantitative real-time polymerase chain reaction (qPCR). Briefly, the HBV DNA in the culture medium was extracted using QIAamp 96 DNA Blood Kit according to the manual and then quantified by real-time PCR assay using the primers and probe in the table 2 below.
(§3) 2) DATA Analysis EC50 and CC50 values are calculated by the GRAPTIPAD PRISM software.

[2] = Cytotoxicity determination in HepG2.2.15 cells (CCK-8 cell viability); format: cell-based; conditions: human, 6 days treatment, CCK-8 assay, highest concentration 100 uM
Method: as §1, §2
Cell viability was determined by CCK-8 assay. After 6 days of compounds treatment, 20 μl CCK-8 reagents were added to each well of cytotoxicity assay plates. Cell plates were incubated at 37° C., 5% CO2 for 2.5 h. The absorbance at 450 nm wavelength and the absorbance at 630 nm wavelength as reference was measured.
as §3

SMILES | EC50 [1] | CC50 at 6 days [2]
COC(=O)C1=C(CN2CC(F)(F)[C@@H]3C(=O)N(CC(C)(C)C(=O)O)C[C@@H]32)NC(c2ncoc2C)=N[C@H]1c1ccc(F)cc1Cl (single isomer, unassigned) [Compound 41, 3-((cis)-1-((6-(2-chloro-4-fluorophenyl)-5-(methoxycarbonyl)-2-(5-methyloxazol-4-yl)-3,6-dihydropyrimidin-4-yl)methyl)-3,3-difluoro-4-oxohexahydropyrrolo[3,4-b]pyrrol-5(1H)-yl)-2,2-dimethylpropanoic acid] | 93.8 nM | > 100000 nM
COC(=O)C1=C(CN2CC(F)(F)[C@@H]3C(=O)N(CC(C)(C)C(=O)O)C[C@@H]32)NC(c2nccs2)=N[C@H]1c1ccc(F)c(F)c1Cl (single isomer, unassigned) [Compound 42, 3-((cis)-1-((6-(2-Chloro-3,4-difluorophenyl)-5-(methoxycarbonyl)-2-(thiazol-2-yl)-3,6-dihydropyrimidin-4-yl)methyl)-3,3-difluoro-4-oxohexahydropyrrolo[3,4-b]pyrrol-5(1H)-yl)-2,2-dimethylpropanoic acid] | 13.8 nM | > 100000 nM
CCOC(=O)C1=C(CN2CC(F)(F)[C@@H]3C(=O)N(CC(C)(C)C(=O)O)C[C@@H]32)NC(c2nccs2)=N[C@H]1c1cccc(F)c1Cl (single isomer, unassigned) [Compound 43, 3-((cis)-1-((6-(2-chloro-3-fluorophenyl)-5-(ethoxycarbonyl)-2-(thiazol-2-yl)-3,6-dihydropyrimidin-4-yl)methyl)-3,3-difluoro-4-oxohexahydropyrrolo[3,4-b]pyrrol-5(1H)-yl)-2,2-dimethylpropanoic acid] | 4.1 nM | 50200 nM
CCOC(=O)C1=C(CN2CC(F)(F)[C@@H]3C(=O)N([C@H]4CC[C@@H](C(=O)O)CC4)C[C@@H]32)NC(c2nccs2)=N[C@H]1c1cccc(F)c1C (single isomer, unassigned) [Compound 44A] | 56.7 nM | > 100000 nM
CCOC(=O)C1=C(CN2CC(F)(F)[C@@H]3CN(S(=O)(=O)CC(C)(C)C(=O)O)C[C@@H]32)NC(c2nccs2)=N[C@H]1c1cccc(F)c1C (single isomer, unassigned) [Compound 46] | 39.4 nM | 20900 nM
CCOC(=O)C1=C(CN2CC(F)(F)[C@@H]3CN(CC4(CC(=O)O)CC4)C[C@@H]32)NC(c2nccs2)=N[C@H]1c1cccc(F)c1C (single isomer, unassigned) [Compound 48] | 105 nM | > 100000 nM
CCOC(=O)C1=C(CN2CC[C@@]3(F)C(=O)N(CCC(C)(C)C(=O)O)C[C@@H]23)NC(c2nccs2)=N[C@H]1c1cccc(F)c1C (single isomer, unassigned) [Compound 50A] | 40.8 nM | 49300 nM
CCOC(=O)C1=C(CN2CC(F)(F)[C@@H]3CN(c4ncc(C(=O)O)cn4)C[C@@H]32)NC(c2nccs2)=N[C@H]1c1cccc(F)c1C (single isomer, unassigned) [Compound 54] | 49.2 nM | 55200 nM
CCOC(=O)C1=C(CN2CC(F)(F)[C@@H]3CN(C(=O)[C@H]4C[C@@H](C(=O)O)C4)C[C@@H]32)NC(c2nccs2)=N[C@H]1c1cccc(F)c1C (single isomer, unassigned) [Compound 56B] | 79.2 nM | > 100000 nM
CCOC(=O)C1=C(CN2CC(F)(F)[C@@H]3CN(C(=O)[C@@H]4C[C@@H]4C(=O)O)C[C@@H]32)NC(c2nccs2)=N[C@H]1c1cccc(F)c1C (single isomer, unassigned) [Compound 57B] | 92.2 nM | 51200 nM
CCOC(=O)C1=C(CN2CC(F)(F)[C@@H]3CN(C(=O)OC(C)(C)C(=O)O)C[C@@H]32)NC(c2nccs2)=N[C@H]1c1cccc(F)c1C (single isomer, unassigned) [Compound 60] | 49.6 nM | 29400 nM
CCOC(=O)C1=C(CN2CC(F)(F)[C@H]3[C@@H]2CCN3C(C)=O)NC(c2nccs2)=N[C@H]1c1cccc(F)c1C (single isomer, unassigned) [Compound 61] | 37.3 nM | 21500 nM
